Data: PubChem BioAssay (NCI)
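1) Cells in 96-well plates. 2) Compound, 48 h, 5 concentrations. 3) Linear interpolation between surrounding doses. 4) Unreached endpoint = highest concentration. Definition used: TGI = concentration required for complete inhibition of growth.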

Key:
Test in all cases: NCI-60 cell line screen, 48 h
[1] = tested on: RPMI-8226 leukemia
[2] = tested on: OVCAR-3 ovarian
[3] = tested on: OVCAR-5 ovarian
[4] = tested on: NCI/ADR-RES ovarian
[5] = tested on: MCF7 breast
[6] = tested on: RXF 393 renal
[7] = tested on: COLO 205 colon
[8] = tested on: DU-145 prostate
[9] = tested on: CAKI-1 renal
[10] = tested on: UO-31 renal
[11] = tested on: TK-10 renal
[12] = tested on: PC-3 prostate
[13] = tested on: SF-539 CNS
[14] = tested on: SF-295 CNS
[15] = tested on: 786-0 renal
[16] = tested on: HCT-15 colon
[17] = tested on: LOX IMVI melanoma
[18] = tested on: UACC-257 melanoma
[19] = tested on: SNB-75 CNS
[20] = tested on: IGROV1 ovarian
[21] = tested on: MDA-MB-435
[22] = tested on: SF-268 CNS
[23] = tested on: A498 renal
[24] = tested on: HS 578T breast
[25] = tested on: MALME-3M melanoma
[26] = tested on: MDA-MB-231 breast
[27] = tested on: NCI-H522 lung
[28] = tested on: NCI-H460 lung
[29] = tested on: HL-60(TB) leukemia
[30] = tested on: ACHN renal
[31] = tested on: HOP-62 NSCLC
[32] = tested on: K-562 leukemia
[33] = tested on: SNB-19 CNS
[34] = tested on: A549 NSCLC
[35] = tested on: M14 melanoma
[36] = tested on: SK-MEL-28 melanoma
[37] = tested on: EKVX NSCLC
[38] = tested on: NCI-H226 lung
[39] = tested on: OVCAR-4 ovarian
[40] = tested on: NCI-H23 lung
[41] = tested on: SR leukemia
[42] = tested on: SK-MEL-2 melanoma
[43] = tested on: HCT-116 colon
[44] = tested on: HT29 colon
[45] = tested on: BT-549 breast
[46] = tested on: OVCAR-8 ovarian
[47] = tested on: U251 CNS
[48] = tested on: MOLT-4 leukemia
[49] = tested on: HOP-92 NSCLC
[50] = tested on: SN12C renal
[51] = tested on: KM12 colon
[52] = tested on: T-47D breast
[53] = tested on: UACC-62 melanoma
[54] = tested on: SK-OV-3 ovarian
[55] = tested on: SW-620 colon
[56] = tested on: MDA-N
[57] = tested on: SK-MEL-5 melanoma

Measured: TGI

N/C(CC(=O)Nc1cc(C(F)(F)F)ccc1Cl)=N\O
> 100 µM: [1] | [2] | [3] | [4] | [5] | [6] | [7] | [8] | [9] | [10] | [11] | [12] | [13] | [14] | [15] | [16] | [17] | [18] | [19] | [20] | [21] | [22] | [23] | [24] | [25] | [26] | [27] | [28] | [29] | [30] | [31] | [32] | [33] | [34] | [35] | [36] | [37] | [38] | [39] | [40] | [41] | [42] | [43] | [44] | [45] | [46] | [47] | [48] | [49] | [50] | [51] | [52] | [53] | [54] | [55] | [56] | [57]
